“Also recorded” adds a separate entry of the source.
How the values were obtained:
Type in all cases: cell-based
Panc-1 cells = assay: Transfection of Panc-1 cells with LMDs (liposome:mu:DNA), β-galactosidase reporter assay; details: LMDs composed entirely of DOTAP or DOTAP-analogue liposomes, FIG. 19
Experimental: (§1) Purity of the lipids was checked by TLC or HPLC. All lipids were stored as stock solutions in anhydrous CH2Cl2, at concentrations of either 5 mg/ml or 10 mg/ml, at −80° C., under Ar. In order to prepare cationic liposomes, lipids were added to a round-bottomed flask, via syringe, under Ar, and further freshly distilled CH2Cl2 was added, if necessary, to give a concentration of around 2.5 mg/ml. Then, 4 mM HEPES pH 7.0 (1 ml) was added, and the biphasic system was swirled to mix. A liposomal suspension was created by removing the organic solvent under reduced pressure at 25° C., followed by sonication for 2-5 min. in a water bath sonicator. Doubly-distilled water was added, if necessary, to return the total volume to 1 ml. All liposomal solutions were prepared at a final concentration of 5 mg/ml. The pH of the liposomal suspension was checked by pH Boy (Camlab Ltd., Over, Cambridgeshire, UK) and adjusted to pH 7.0±0.1 with concentrated aqueous solutions of HCl and NaOH.
(§2) Liposomes were extruded (Extruder, Northern Upids, Inc., Vancouver, BC, Canada) by passing through two 100 nm polycarbonate filters (Isopore™ Membrane Filters, Millipore (UK) Ltd., Watford, Hertfordshire, UK) ten times. For each preparation, the size distribution of liposomes was measured by photon correlation spectroscopy (PCS) (Coulter® N4 Plus Submicron Particle Sizer, Beckman Coulter, High Wycombe, Buckinghamshire, UK). For phospholipid-containing liposomes, phospholipid concentrations were checked by the Stewart assay.^23 In each case, a final lipid concentration of 4.7±0.1 mg/ml was observed. For non-phospholipid containing liposomes, lipid loss was also inevitable on extrusion. For all fast-extruding liposomal suspensions, total lipid concentration was assumed to be 4.7 mg/ml. For slower extrusions, total lipid concentrations were assumed to be 4.3 mg/ml. Very slowly extruding liposomes were extruded three times only and assumed to be 4.7 mg/ml.
(§3) Plasmid DNA containing the β-galactosidase gene (pNGVL1-nt-beta-gal; 7.53 kbp) was stored as frozen aliquots at −80° C., at a concentration of 1.2 mg/ml; μ (mu) peptide (adenoviral core peptide [H2N-Met-Arg-Arg-Ala-His-His-Arg-Arg-Arg-Arg-Ala-Ser-His-Arg-Arg-Met-Arg-Gly-Gly-CO2H]) was synthesised as described previously,^7 and maintained at 4° C. in aliquots of 1 mg/ml. Mu-DNA complexes were made by adding plasmid DNA to mu in 4 mM HEPES at a ratio of 1:0.6 (w/w) with fast vortexing. LMDs were prepared by complexing mu-DNA particles with cationic liposomes (as prepared above) in a ratio of 1:12 (w/w), such that all LMDs for all formulations were substantially cationic. For each preparation, the size distribution of LMDs was measured by PCS.
Panc-1 cells were maintained in RPMI/10% FCS/1% penicillin-streptomycin (Gibco™, Invitrogen Corporation, Paisley, Scotland, UK) at 37° C./5% CO2 in a humidified atmosphere. Twenty-four hours prior to transfection, 30 000 cells per well were seeded in 48 well microtitre plates (Corning Costar, Merck Ltd., Lutterworth, Leicestershire, UK) in 500 μl medium. As a control, plasmid DNA (0.5 μg in 200 μl medium) was added to a well. As a positive control, 1.5 μl Transfast™ (Promega Corporation, Madison, Wis., USA; prepared according to the supplier's protocol) in 200 μl medium was complexed with plasmid DNA (0.5 μg) and added to a well. 5 μl (0.5 μg DNA) of LMD formulation was added to each well. All experiments were performed in quadruplicate. The plate was swirled for 30 s, and incubated for 1 h at 37° C. Medium was then removed, and 500 μl of fresh medium was added. The cells were incubated at 37° C. for a further 24 h.
Medium was aspirated from the wells and the cell layer was washed with phosphate buffered saline (PBS) (Gibco™). The cells of each well were lysed in 150 μl lysis reagent (prepared according to the supplier's protocol; β-Gal Reporter Gene Assay, Roche Diagnostics GmbH, D-68305 Mannheim, Germany) at room temperature for 30 min. […]

COS-7 cells = assay: Transfection of COS-7 cells with LMDs (liposome:mu:DNA), β-galactosidase reporter assay; details: LMDs of pure DOTAP or DOTAP-analogue liposomes, FIG. 20
Experimental: as §1, §2, §3
COS-7 cells were maintained in DMEM/10% FCS/1% penicillin-streptomycin (Gibco™) at 37° C./5% CO2 in a humidified atmosphere. Twenty-four hours prior to transfection, 10 000 cells per well were seeded in 48-well microtitre plates (Coming Costar) in 500 μl medium. Plasmid DNA and Transfast™ controls were prepared as above. 5 μl (0.5 μg DNA) of LMD formulation was added to each well. All experiments were performed in quadruplicate. The plate was swirled for 30 s, and incubated for 1 h at 37° C. Medium was then removed, and 500 μl of fresh medium was added. The cells were incubated at 37° C. for a further 24 h.
Medium was aspirated from the wells and the cell layer was washed with phosphate buffered saline (PBS) (Gibco™). The cells of each well were lysed in 150 μl lysis reagent (prepared according to the supplier's protocol; β-Gal Reporter Gene Assay, Roche Diagnostics GmbH, D-68305 Mannheim, Germany) at room temperature for 30 min. After lysis, […], 50 μl and 20 μl, of each cell suspension were used for the determination of β-galactosidase activity and for the determination of total cellular protein (to normalise results), respectively.
In the β-gal assay, 100 μl of the substrate reagent was added to 50 μl of the cell suspension in a white 96-well microplate (Coming Costar). […]

Panc-1 and COS-7 cells = assay: In vitro transfection of LMDs, overall statements without a single cell line; details: cell line not stated or across Panc-1 and COS-7 cells
Experimental: as §1, with “The pH of the liposomal suspension was checked by pH Boy (Camlab Ltd., Over, Cambridgeshire, UK) and adjusted to pH 7.0±0.1 with concentrated aqueous solutions of HCl and NaOH.” left out
Liposomes were extruded (Extruder, Northern Upids, Inc., Vancouver, BC, Canada) by passing through two 100 nm polycarbonate filters (Isopore™ Membrane Filters, Millipore (UK) Ltd., Watford, Hertfordshire, UK) ten times. For each preparation, the size distribution of liposomes was measured by photon correlation spectroscopy (PCS) (Coulter® N4 Plus Submicron Particle Sizer, Beckman Coulter, High Wycombe, Buckinghamshire, UK). […]

Question: Which results are given for `CCCCCCCC/C=C\CCCCCCCC(=O)OCC(C[N+](C)(C)C)OC(=O)CCCCCCC/C=C\CCCCCCCC` (stereo not drawn) [DOTAP]?
Answer: Transfection (β-galactosidase activity) (Panc-1 cells): transfect less well than the positive control Transfast; Transfection (β-galactosidase activity) (COS-7 cells): transfect similarly; In vitro transfection, overall statement (Panc-1 and COS-7 cells): transfect worse than CDAN:DOPE, 1:1 liposomes; also recorded: generally poor

From patent publication US20040219202A1, “Pharmaceutical composition comprising lipids comprising a polar and a nonpolar moiety” (priority 2001, published 2004)
